The values that follow come from patent US20260308185A1, “STAT DEGRADERS AND USES THEREOF” (Recludix Pharma, Inc., priority 2023, published 2026).

The subject of the experiment is pSTAT6 (pY641-STAT6) in PBMC. Kind of experiment: MSD-pSTAT-PBMC Assay (pSTAT6). It counts as cell-based. Particulars: compound 3 hrs, then 1 ng/mL IL-4 for 10 min. The source says: Cryopreserved Peripheral Blood Mononuclear Cells (PBMC) are from AllCells. Recombinant Human […] and IL-6 are from Peprotech. Mouse monoclonal anti-STAT3 antibody, rabbit monoclonal anti-pY705-STAT3 antibody, rabbit monoclonal Anti-pY641-STAT6 antibody, and lysis buffer are from Cell Signaling Technology (CST). Mouse monoclonal anti-STAT6 antibody is from BioLegend. Assay plates, blocker, and anti-rabbit secondary antibody are from Meso Scale Discovery (MSD).
Cryopreserved PBMCs were thawed out and allowed to recover overnight in IMDM+10% heat-inactivated FBS prior to plating 50,000 (STAT3) or 25,000 (STAT6) cells per well in 96-well U-bottom tissue culture plates. Cells were treated with compound for 3 hrs, then stimulated with 10 ng/mL IL-6 (STAT3) or 1 ng/mL IL-4 (STAT6) for 10 min. Cells were then spun down and washed with ice-cold PBS prior to lysing the cell pellet with 1× lysis buffer (CST) with 1× HALT protease and phosphatase inhibitor cocktail (Thermo). Lysates were transferred to and incubated overnight at 4° C. with shaking in QuickPlex 96-well high bind assay plates (MSD) pre-coated overnight with 30 μL per well of 0.6 μg/mL mouse monoclonal anti-STAT3 antibody (STAT3) or 2 μg/mL mouse monoclonal anti-STAT6 antibody (STAT6) in 1×PBS, and pre-blocked for 1 hour with 3% Blocker-A (MSD). Captured protein in the assay plates were then washed and probed with 25 μL per well of 0.25 μg/ml rabbit monoclonal anti-pY705-STAT3 antibody (STAT3) or 0.18 μg/ml rabbit monoclonal Anti-pY641-STAT6 antibody (STAT6) in 1% Blocker-A for 1 hour at room temperature with shaking, then washed and probed with 25 ul per well of 1 ug/ml Sulfo-TAG Labeled Goat Anti-Rabbit Antibody (MSD) in 1% Blocker-A for 1 hour at room temperature with shaking. Assay plates were then washed and 150 μL of 1× Read Buffer-T (MSD) was added to each well prior to reading on an SQ120 MSD Plate Reader. Assay signal from each sample was subtracted by the signal from unstimulated control wells and normalized to DMSO control wells, IC50 values were calculated using Graph Pad Prism Dose-Response Nonlinear Regression with variable slope. For both pSTAT3 and pSTAT6 A=≤100 nM; B=>100-1000 nM; C=>1000-3000 nM; and D=>3 μM.
Consider `CCCC(=O)SCCOP(=O)(OCCSC(=O)CCC)C(F)(F)c1ccc2sc(C(=O)NC3CC4CC4CC4CCC(C(=O)N5CC(c6ccn(CCCCCOc7ccc(C8CCC(=O)NC8=O)cc7)c(=O)c6)CC56CC6)N4C3=O)cc2c1` [Compound 9, S,S′-(((((2-(((3S,6S,7aS,8aR,9aR)-3-((6R)-6-(1-(5-(4-(2,6-dioxopiperidin-3-yl)phenoxy)pentyl)-2-oxo-1,2-dihydropyridin-4-yl)-4-azaspiro[2.4]heptane-4-carbonyl)-5-oxodecahydro-1H-cyclopropa[d]pyrrolo[1,2-a]azocin-6-yl)carbamoyl)benzo[b]thiophen-5-yl)difluoromethyl)phosphoryl)bis(oxy))bis(ethane-2,1-diyl)) dibutanethioate], for which the IC50 (as a rule, the concentration that gives 50% inhibition) was below 0.1 µM.
The result for `CCCC(=O)SCCOP(=O)(OCCSC(=O)CCC)C(F)(F)c1ccc2sc(C(=O)NC3CC4CC4CC4CCC(C(=O)N5CC(C#N)C(c6cccc(OCCOCCOc7cccc8c7CN(C7CCC(=O)NC7=O)C8=O)c6)C5)N4C3=O)cc2c1` [Compound 16, S,S′-(((((2-(((3S,6S,7aS,8aR,9aR)-3-((rel-3S,4R)-3-cyano-4-(3-(2-(2-((2-(2,6-dioxopiperidin-3-yl)-1-oxoisoindolin-4-yl)oxy)ethoxy)ethoxy)phenyl)pyrrolidine-1-carbonyl)-5-oxodecahydro-1H-cyclopropa[d]pyrrolo[1,2-a]azocin-6-yl)carbamoyl)benzo[b]thiophen-5-yl)difluoromethyl)phosphoryl)bis(oxy))bis(ethane-2,1-diyl)) dibutanethioate] reads below 0.1 µM.
`CCCC(=O)SCCOP(=O)(OCCSC(=O)CCC)C(F)(F)c1ccc2sc(C(=O)NC3CC4CC4CC4CCC(C(=O)N5CC(c6ccn(CCOCCOCCOc7cccc8c7CN(C7CCC(=O)NC7=O)C8=O)c(=O)c6)CC56CC6)N4C3=O)cc2c1` [Compound 18, S,S′-(((((2-(((3S,6S,7aS,8aR,9aR)-3-((6R)-6-(1-(2-(2-(2-((2-(2,6-dioxopiperidin-3-yl)-1-oxoisoindolin-4-yl)oxy)ethoxy)ethoxy)ethyl)-2-oxo-1,2-dihydropyridin-4-yl)-4-azaspiro[2.4]heptane-4-carbonyl)-5-oxodecahydro-1H-cyclopropa[d]pyrrolo[1,2-a]azocin-6-yl)carbamoyl)benzo[b]thiophen-5-yl)difluoromethyl)phosphoryl)bis(oxy))bis(ethane-2,1-diyl)) dibutanethioate] came in with an IC50 of 0.1 to 1 µM.
The same measure for `CCCC(=O)SCCOP(=O)(OCCSC(=O)CCC)C(F)(F)c1ccc2sc(C(=O)NC3CC4CC4CC4CCC(C(=O)N5CC(C#N)C(c6cccc(OCCCCOc7ccc(C8CCC(=O)NC8=O)cc7)c6)C5)N4C3=O)cc2c1` [Compound 4, S,S′-(((((2-(((3S,6S,7aS,8aR,9aR)-3-((rel-3S,4R)-3-cyano-4-(3-(4-(4-(2,6-dioxopiperidin-3-yl)phenoxy)butoxy)phenyl)pyrrolidine-1-carbonyl)-5-oxodecahydro-1H-cyclopropa[d]pyrrolo[1,2-a]azocin-6-yl)carbamoyl)benzo[b]thiophen-5-yl)difluoromethyl)phosphoryl)bis(oxy))bis(ethane-2,1-diyl)) dibutanethioate]: 0.1 to 1 µM; for `CCCC(=O)SCCOP(=O)(OCCSC(=O)CCC)C(F)(F)c1ccc2sc(C(=O)NC3CC4CC4CC4CCC(C(=O)N5CC(c6ccn(CCCCCCC#Cc7cccc8c7CN(C7CCC(=O)NC7=O)C8=O)c(=O)c6)CC56CC6)N4C3=O)cc2c1` [Compound 6, S,S′-(((((2-(((3S,6S,7aS,8aR,9aR)-3-((6R)-6-(1-(8-(2-(2,6-dioxopiperidin-3-yl)-1-oxoisoindolin-4-yl)oct-7-yn-1-yl)-2-oxo-1,2-dihydropyridin-4-yl)-4-azaspiro[2.4]heptane-4-carbonyl)-5-oxodecahydro-1H-cyclopropa[d]pyrrolo[1,2-a]azocin-6-yl)carbamoyl)benzo[b]thiophen-5-yl)difluoromethyl)phosphoryl)bis(oxy))bis(ethane-2,1-diyl)) dibutanethioate]: below 0.1 µM; for `CCCC(=O)SCCOP(=O)(OCCSC(=O)CCC)C(F)(F)c1ccc2sc(C(=O)NC3CC4CC4CC4CCC(C(=O)N5CC(C#N)C(c6cccc(OCCCCCC#Cc7cccc8c7CN(C7CCC(=O)NC7=O)C8=O)c6)C5)N4C3=O)cc2c1` [Compound 8, S,S′-(((((2-(((3S,6S,7aS,8aR,9aR)-3-((rel-3S,4R)-3-cyano-4-(3-((7-(2-(2,6-dioxopiperidin-3-yl)-1-oxoisoindolin-4-yl)hept-6-yn-1-yl)oxy)phenyl)pyrrolidine-1-carbonyl)-5-oxodecahydro-1H-cyclopropa[d]pyrrolo[1,2-a]azocin-6-yl)carbamoyl)benzo[b]thiophen-5-yl)difluoromethyl)phosphoryl)bis(oxy))bis(ethane-2,1-diyl)) dibutanethioate]: below 0.1 µM.
In turn, `CCCC(=O)SCCOP(=O)(OCCSC(=O)CCC)C(F)(F)c1ccc2sc(C(=O)NC3CC4CC4CC4CCC(C(=O)N5CC(c6ccn(C7CCN(c8ccc9c(c8)[nH]c(=O)n9C8CCC(=O)NC8=O)CC7)c(=O)c6)CC56CC6)N4C3=O)cc2c1` [Compound 20, S,S′-(((((2-(((3S,6S,7aS,8aR,9aR)-3-((6R)-6-(1-(1-(1-(2,6-dioxopiperidin-3-yl)-2-oxo-2,3-dihydro-1H-benzo[d]imidazol-5-yl)piperidin-4-yl)-2-oxo-1,2-dihydropyridin-4-yl)-4-azaspiro[2.4]heptane-4-carbonyl)-5-oxodecahydro-1H-cyclopropa[d]pyrrolo[1,2-a]azocin-6-yl)carbamoyl)benzo[b]thiophen-5-yl)difluoromethyl)phosphoryl)bis(oxy))bis(ethane-2,1-diyl)) dibutanethioate] showed an IC50 of 0.1 to 1 µM.
The result for `CCCC(=O)SCCOP(=O)(OCCSC(=O)CCC)C(F)(F)c1ccc2sc(C(=O)NC3CC4CC4CC4CCC(C(=O)N5CC(C#N)C(c6cccc(N7CCN(c8ccc9c(c8)[nH]c(=O)n9C8CCC(=O)NC8=O)CC7)c6)C5)N4C3=O)cc2c1` [Compound 14, S,S′-(((((2-(((3S,6S,7aS,8aR,9aR)-3-((rel-3S,4R)-3-cyano-4-(3-(4-(1-(2,6-dioxopiperidin-3-yl)-2-oxo-2,3-dihydro-1H-benzo[d]imidazol-5-yl)piperazin-1-yl)phenyl)pyrrolidine-1-carbonyl)-5-oxodecahydro-1H-cyclopropa[d]pyrrolo[1,2-a]azocin-6-yl)carbamoyl)benzo[b]thiophen-5-yl)difluoromethyl)phosphoryl)bis(oxy))bis(ethane-2,1-diyl)) dibutanethioate] reads below 0.1 µM.
